Test results as given in ChEMBL document CHEMBL1125716, “1,2,4-Triazolo[4,3-a]pyrazine derivatives with human renin inhibitory activity. 3.1 Synthesis and biological properties of aminodeoxystatine and difluorostatone derivatives” (J Med Chem, 1991).

What follows are molecules tested against T1, Renin (Homo sapiens, UniProt P00797) (assay: Inhibition of human renin).
T1 sequence (P00797 whole entry): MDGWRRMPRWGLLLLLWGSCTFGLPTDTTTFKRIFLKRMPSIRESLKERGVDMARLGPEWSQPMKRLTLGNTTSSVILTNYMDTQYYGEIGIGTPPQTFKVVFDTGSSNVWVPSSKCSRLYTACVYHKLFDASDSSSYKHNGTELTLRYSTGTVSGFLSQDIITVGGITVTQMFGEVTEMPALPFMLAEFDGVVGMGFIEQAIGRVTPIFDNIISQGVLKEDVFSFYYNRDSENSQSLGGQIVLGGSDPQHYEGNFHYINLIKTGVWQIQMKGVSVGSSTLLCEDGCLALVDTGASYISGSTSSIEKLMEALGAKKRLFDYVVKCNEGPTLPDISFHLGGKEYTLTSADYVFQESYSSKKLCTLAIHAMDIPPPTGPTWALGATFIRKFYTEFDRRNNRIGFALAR

Compound	IC50 [nM]
CC(C)Cc1nc(-c2ccccc2)cn2c(CC(=O)NC(CC3CCCCC3)C(=O)C(F)(F)C(=O)NC(CC(C)C)C(=O)NCc3ccccn3)nnc12 (stereo unspecified)	1.9
CC(C)CCNC(=O)C(F)(F)C(=O)C(CC1CCCCC1)NC(=O)Cc1nnc2c(CC(C)C)nc(-c3ccccc3)cn12 (stereo unspecified)	38
CC(C)Cc1nc(-c2ccccc2)cn2c([C@H](Cc3cccnc3)C(=O)N[C@@H](CC3CCCCC3)C(N)CC(=O)NC(CC(C)C)C(=O)NCc3ccccn3)nnc12 (stereo in doubt; 13a)	3.9
CC(C)Cc1nc(-c2ccccc2)cn2c([C@@H](Cc3cccnc3)C(=O)N[C@H](CC3CCCCC3)C(N)CC(=O)NC(CC(C)C)C(=O)NCc3ccccn3)nnc12 (stereo in doubt; 13c)	6.1
CC(C)Cc1nc(-c2ccccc2)cn2c([C@H](Cc3cccnc3)C(=O)N[C@@H](CC3CCCCC3)C(N)CC(=O)NC(CC(C)C)C(=O)NCc3ccccn3)nnc12 (stereo in doubt; 13b)	100
CC(C)Cc1nc(-c2ccccc2)cn2c([C@@H](Cc3cccnc3)C(=O)N[C@H](CC3CCCCC3)C(N)CC(=O)NC(CC(C)C)C(=O)NCc3ccccn3)nnc12 (stereo in doubt; 13d)	120

The next molecules have a lower IC50 than those just listed; values first:

IC50 [nM]	Compound
1.4	CCCc1nc(-c2cccnc2)cn2c(CC(=O)NC(CC3CCCCC3)C(=O)C(F)(F)C(=O)NCC)nnc12 (stereo unspecified)
1.6	CCCc1nc(-c2cccnc2)cn2c(CC(=O)NC(CC3CCCCC3)C(=O)C(F)(F)C(=O)NCCC(C)C)nnc12 (stereo unspecified)
1.8	CCCc1nc(-c2cccnc2)cn2c(C(Cc3cccnc3)C(=O)NC(CC3CCCCC3)C(=O)C(F)(F)C(=O)NCCC(C)C)nnc12 (stereo unspecified)
1.7	CCCc1nc(-c2cccnc2)cn2c(CC(=O)NC(CC3CCCCC3)C(=O)C(F)(F)C(=O)NCC(C)CC)nnc12 (stereo unspecified)
1.7	CC(C)Cc1nc(-c2ccccc2)cn2c(C(Cc3cccnc3)C(=O)NC(CC(C)CC3CCCCC3)C(O)CC(=O)NC(CC(C)C)C(=O)NCc3cccc(CN)c3)nnc12 (stereo unspecified)
